Like-named read-outs stand apart in the source and are kept apart here.
Target: T1, NRH-quinone oxidoreductase 2 (NQO2-F47) (Homo sapiens, UniProt P16083, L47F)
T1 sequence (P16083 1-231 L47F): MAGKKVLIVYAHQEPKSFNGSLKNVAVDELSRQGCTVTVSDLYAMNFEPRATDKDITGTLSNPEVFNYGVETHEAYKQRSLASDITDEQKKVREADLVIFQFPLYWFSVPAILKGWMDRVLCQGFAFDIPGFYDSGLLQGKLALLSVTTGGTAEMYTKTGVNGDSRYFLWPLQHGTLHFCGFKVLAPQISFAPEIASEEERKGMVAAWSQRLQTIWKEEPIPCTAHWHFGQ
Assay: thermal scanning fluorimetry KD,app (FAD fluorescence)
Type: binding

SMILES | Kd (read-out: Kd) [mM] | Kd [mM]
O=c1oc2ccccc2c(O)c1Cc1c(O)c2ccccc2oc1=O [dicoumarol] | 0.0337 ± 0.0026 | –
NC(=O)c1cccnc1 [nicotinamide] | – | 14.4 ± 1.1
